Like-named read-outs stand apart in the source and are kept apart here.
Key:
[1] = PAMPA-BBB permeability assay; assay type: in vitro ADME; details: read-out: Permeability-PAMPA-BBB Pe
[2] = Plasma protein binding, human; assay type: in vitro ADME
[3] = target: T1, AEP (Rattus norvegicus, UniProt Q9R0J8); assay: AEP inhibition in cultured primary neurons; assay type: cell-based
T1 construct: endogenous in cells; host or cells: primary rat cortical neurons
T1 sequence (Q9R0J8 18-435): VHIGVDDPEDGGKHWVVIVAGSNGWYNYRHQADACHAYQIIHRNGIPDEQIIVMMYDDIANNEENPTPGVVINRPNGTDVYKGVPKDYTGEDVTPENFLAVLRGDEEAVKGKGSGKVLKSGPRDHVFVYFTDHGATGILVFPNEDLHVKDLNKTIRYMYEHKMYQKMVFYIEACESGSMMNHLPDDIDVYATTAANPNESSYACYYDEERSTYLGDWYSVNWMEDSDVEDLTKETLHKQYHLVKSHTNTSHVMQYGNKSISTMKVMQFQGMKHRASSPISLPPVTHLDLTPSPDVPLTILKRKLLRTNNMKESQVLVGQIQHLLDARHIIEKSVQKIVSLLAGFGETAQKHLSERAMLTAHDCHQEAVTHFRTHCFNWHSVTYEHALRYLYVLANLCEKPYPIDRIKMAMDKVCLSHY

[4] = Stability in mouse hepatocytes; assay type: in vitro ADME
[5] = target: hERG K+ channel (Homo sapiens, UniProt Q12809); assay: hERG inhibition assay
[6] = Stability in human hepatocytes; assay type: in vitro ADME; details: for half-life: read-out: Stability-Hepatocytes T1/2
[7] = Stability in mouse plasma; assay type: in vitro ADME; details: read-out: Stability-Plasma T1/2
[8] = Plasma protein binding, mouse; assay type: in vitro ADME
[9] = Stability in human plasma; assay type: in vitro ADME; details: read-out: Stability-Plasma T1/2
[10] = Caco-2 permeability; assay type: in vitro ADME; details: human; for Papp A→B: first value of the cell
[11] = Solubility (pH 7.4, PBS); assay type: physicochemical
[12] = Stability in human liver microsomes; assay type: in vitro ADME; details: for half-life: read-out: Stability-Microsomes T1/2
[13] = target: T2, recombinant AEP enzyme (Homo sapiens, UniProt Q99538); assay: In vitro AEP enzymatic inhibition assay; assay type: biochemical; details: read-out: IC50 toward recombinant AEP enzyme (in vitro)
T2 sequence (Q99538 18-433): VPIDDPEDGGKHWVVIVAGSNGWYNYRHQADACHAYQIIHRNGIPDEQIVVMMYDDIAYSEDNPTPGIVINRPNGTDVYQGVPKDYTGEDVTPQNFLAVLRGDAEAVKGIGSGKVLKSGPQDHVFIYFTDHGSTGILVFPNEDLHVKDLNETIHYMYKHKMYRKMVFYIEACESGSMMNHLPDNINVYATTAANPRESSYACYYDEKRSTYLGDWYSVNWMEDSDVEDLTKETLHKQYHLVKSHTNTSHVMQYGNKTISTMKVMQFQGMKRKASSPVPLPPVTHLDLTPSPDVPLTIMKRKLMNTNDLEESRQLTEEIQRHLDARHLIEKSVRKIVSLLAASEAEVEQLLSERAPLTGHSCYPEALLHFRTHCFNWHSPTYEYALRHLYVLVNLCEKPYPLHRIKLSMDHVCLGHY
Description: AEP activity was assessed as previously described [21]. Tissue homogenates (10 ​μg protein) were incubated with 20 ​μM AEP-specific fluorogenic substrate in 200 ​μL of optimized assay buffer (20 ​mM citric acid, 60 ​mM Na2HPO4, 1 ​mM EDTA, 0.1 ​% CHAPS, 1 ​mM DTT; pH 6.0) to quantify enzymatic activity. Reactions were performed at 37 ​°C in a temperature-controlled microplate reader (BioTek Synergy HTX Multimode Reader, Agilent, California, USA). AEP-mediated cleavage of the substrate, liberating fluorescent 7-amino-4-methylcoumarin (AMC), was monitored kinetically by measuring emission at 460 ​nm (excitation: 380 ​nm) every 5 ​min over 60-min. Fluorescence values were normalized to background signal from substrate-free controls, and enzyme activity was calculated as the rate of AMC generation (RFU/min/μg protein) during the linear phase of the reaction.

[14] = target: T3, P-glycoprotein (MDR1) (Homo sapiens, UniProt P08183); assay: MDR1-MDCKII permeability assay (P-glycoprotein efflux); assay type: in vitro ADME; details: dog, MDCK-MDR1; for Papp A→B: first value in brackets; for Papp B→A: second value in brackets
T3 construct: expressed in transfected cells; host or cells: MDCKII

[15] = Stability in mouse liver microsomes; assay type: in vitro ADME; details: for half-life: read-out: Stability-Microsomes T1/2
[16] = Stability in rat hepatocytes; assay type: in vitro ADME
[17] = Plasma and brain concentrations after acute oral treatment of 3xTg mice; assay type: in vivo; details: both sexes, mouse, plasma, 7.5 mg/kg, P.O. 7.5 mg/kg, read-out: Concentration in plasma, Serum Mean
Description: Blood and brain tissues were collected at 0, 0.08, 0.25, 0.5, 1, 2, 4, and 8 h post-administration.

[18] = target: T4, AEP (Mus musculus, UniProt O89017); assay: Chronic one-month oral treatment of 3xTg mice: AEP activation and substrate cleavage; assay type: in vivo; details: 7.5 mg/kg P.O. daily
T4 construct: from tissue; host or cells: brain / hippocampus of 3xTg mice
T4 sequence (O89017 18-435): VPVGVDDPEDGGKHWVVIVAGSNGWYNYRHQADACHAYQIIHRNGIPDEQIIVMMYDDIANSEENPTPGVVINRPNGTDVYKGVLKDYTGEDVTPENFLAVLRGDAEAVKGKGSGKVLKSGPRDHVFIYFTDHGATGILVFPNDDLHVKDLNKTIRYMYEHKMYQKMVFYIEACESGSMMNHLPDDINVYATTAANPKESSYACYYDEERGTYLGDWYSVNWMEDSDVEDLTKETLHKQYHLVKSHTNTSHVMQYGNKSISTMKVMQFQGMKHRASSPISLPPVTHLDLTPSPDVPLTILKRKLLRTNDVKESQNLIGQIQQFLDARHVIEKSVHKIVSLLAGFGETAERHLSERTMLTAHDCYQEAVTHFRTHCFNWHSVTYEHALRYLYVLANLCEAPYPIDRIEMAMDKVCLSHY

[19] = tested on: 3xTg mice; assay: Y-maze test in 3xTg mice; assay type: in vivo, mouse; details: 7.5 mg/kg P.O. daily, one month
Description: Blood and brain tissues were collected at 0, 0.08, 0.25, 0.5, 1, 2, 4, and 8 h post-administration. For acute pharmacodynamic (PD) assessments, male and female 3xTg mice received oral doses of NP-11a-isopropyl at 7.5 mg/kg or 15 mg/kg, and blood and brain samples were collected 2 h after treatment.
The Y-maze test was employed to evaluate spatial working memory and spontaneous alternation behavior, a measure of natural exploratory pattern integrity. The apparatus comprised three symmetrical opaque arms (A, B, C; 30 cm length × 8 cm width × 15 cm height) intersecting at 120° angles to form a Y-shaped configuration. Mice were habituated to the maze during a 5-min acclimatization period to minimize novelty-induced anxiety. Following habituation, spontaneous exploration was recorded for 8 min using an overhead camera, with all trials conducted under consistent low-light conditions to reduce environmental stress. EthoVision XT 12 software (Noldus, Wageningen, The Netherlands) quantified total arm entries, entry sequences, and alternation patterns (consecutive entries into three distinct arms without repetition). The maze was thoroughly cleaned with 70 % ethanol between trials to eliminate olfactory cues.

[20] = parameters: method as in PMID 38030711; details: cited from earlier work
[21] = target: T4, AEP; assay: Acute PD in 3xTg mice: brain AEP enzymatic activity and immunoblotting; assay type: in vivo; details: 2 h
[22] = target: T5, BCRP (Homo sapiens, UniProt Q9UNQ0); assay: Caco-2-BCRP assay with and without Ko143; assay type: in vitro ADME; details: human, Caco-2, Ko143 0 μM
T5 construct: endogenous in cells; host or cells: Caco-2
T5 sequence (Q9UNQ0 1-655): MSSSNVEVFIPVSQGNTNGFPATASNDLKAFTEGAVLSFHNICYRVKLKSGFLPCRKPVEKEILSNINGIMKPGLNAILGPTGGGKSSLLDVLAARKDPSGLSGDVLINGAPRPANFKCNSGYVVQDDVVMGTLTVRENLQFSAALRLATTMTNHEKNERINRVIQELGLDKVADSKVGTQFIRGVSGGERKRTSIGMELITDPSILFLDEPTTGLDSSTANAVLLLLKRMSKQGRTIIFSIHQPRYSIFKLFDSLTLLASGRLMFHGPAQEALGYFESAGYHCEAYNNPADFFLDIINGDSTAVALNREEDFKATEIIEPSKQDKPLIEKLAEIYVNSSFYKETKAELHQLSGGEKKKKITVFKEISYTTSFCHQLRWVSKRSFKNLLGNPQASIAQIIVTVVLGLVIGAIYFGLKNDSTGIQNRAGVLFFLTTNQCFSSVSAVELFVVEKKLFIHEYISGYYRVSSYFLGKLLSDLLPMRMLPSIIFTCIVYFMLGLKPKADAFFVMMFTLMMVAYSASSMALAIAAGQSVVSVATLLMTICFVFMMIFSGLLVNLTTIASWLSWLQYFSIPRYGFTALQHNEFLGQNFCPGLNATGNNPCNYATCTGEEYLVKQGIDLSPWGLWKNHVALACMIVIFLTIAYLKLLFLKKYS

[23] = read-out: Stability-Hepatocytes T1/2
[24] = aqueous buffer, pH 7.4, read-out: Solubility (pH, media)

T3 sequence (P08183 whole entry): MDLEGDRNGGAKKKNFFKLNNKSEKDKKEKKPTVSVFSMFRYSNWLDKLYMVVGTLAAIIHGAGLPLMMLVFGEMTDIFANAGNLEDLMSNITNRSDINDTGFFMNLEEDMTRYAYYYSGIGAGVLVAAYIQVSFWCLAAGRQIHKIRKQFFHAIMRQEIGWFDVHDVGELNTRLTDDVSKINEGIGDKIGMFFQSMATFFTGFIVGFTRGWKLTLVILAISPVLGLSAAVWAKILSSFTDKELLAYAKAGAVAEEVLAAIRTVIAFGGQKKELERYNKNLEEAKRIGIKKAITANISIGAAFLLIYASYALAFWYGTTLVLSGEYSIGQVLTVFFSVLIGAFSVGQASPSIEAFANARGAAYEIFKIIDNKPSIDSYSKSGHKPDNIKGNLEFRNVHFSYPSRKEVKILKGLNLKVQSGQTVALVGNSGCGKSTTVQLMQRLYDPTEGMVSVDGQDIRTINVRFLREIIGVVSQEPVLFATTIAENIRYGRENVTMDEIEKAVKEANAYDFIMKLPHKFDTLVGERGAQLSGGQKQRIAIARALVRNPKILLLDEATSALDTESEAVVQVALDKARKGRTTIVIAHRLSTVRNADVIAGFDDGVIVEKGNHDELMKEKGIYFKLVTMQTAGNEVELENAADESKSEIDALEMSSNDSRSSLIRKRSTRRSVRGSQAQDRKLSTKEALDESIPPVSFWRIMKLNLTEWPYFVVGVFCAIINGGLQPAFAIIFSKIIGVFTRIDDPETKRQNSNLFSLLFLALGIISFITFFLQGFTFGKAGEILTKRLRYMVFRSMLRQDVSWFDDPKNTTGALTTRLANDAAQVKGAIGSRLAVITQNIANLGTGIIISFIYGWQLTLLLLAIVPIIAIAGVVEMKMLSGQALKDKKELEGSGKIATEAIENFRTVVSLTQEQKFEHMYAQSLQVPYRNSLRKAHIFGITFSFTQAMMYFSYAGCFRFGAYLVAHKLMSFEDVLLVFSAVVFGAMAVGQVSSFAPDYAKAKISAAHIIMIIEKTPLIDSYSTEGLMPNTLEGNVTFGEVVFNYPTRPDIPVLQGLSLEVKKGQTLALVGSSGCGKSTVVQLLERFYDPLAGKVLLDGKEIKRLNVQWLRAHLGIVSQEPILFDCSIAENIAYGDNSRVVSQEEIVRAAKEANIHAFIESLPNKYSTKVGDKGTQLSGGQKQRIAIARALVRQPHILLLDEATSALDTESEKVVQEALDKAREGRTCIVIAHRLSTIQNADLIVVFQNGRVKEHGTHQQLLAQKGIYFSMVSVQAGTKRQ
Chain of hERG K+ channel (Q12809 whole entry): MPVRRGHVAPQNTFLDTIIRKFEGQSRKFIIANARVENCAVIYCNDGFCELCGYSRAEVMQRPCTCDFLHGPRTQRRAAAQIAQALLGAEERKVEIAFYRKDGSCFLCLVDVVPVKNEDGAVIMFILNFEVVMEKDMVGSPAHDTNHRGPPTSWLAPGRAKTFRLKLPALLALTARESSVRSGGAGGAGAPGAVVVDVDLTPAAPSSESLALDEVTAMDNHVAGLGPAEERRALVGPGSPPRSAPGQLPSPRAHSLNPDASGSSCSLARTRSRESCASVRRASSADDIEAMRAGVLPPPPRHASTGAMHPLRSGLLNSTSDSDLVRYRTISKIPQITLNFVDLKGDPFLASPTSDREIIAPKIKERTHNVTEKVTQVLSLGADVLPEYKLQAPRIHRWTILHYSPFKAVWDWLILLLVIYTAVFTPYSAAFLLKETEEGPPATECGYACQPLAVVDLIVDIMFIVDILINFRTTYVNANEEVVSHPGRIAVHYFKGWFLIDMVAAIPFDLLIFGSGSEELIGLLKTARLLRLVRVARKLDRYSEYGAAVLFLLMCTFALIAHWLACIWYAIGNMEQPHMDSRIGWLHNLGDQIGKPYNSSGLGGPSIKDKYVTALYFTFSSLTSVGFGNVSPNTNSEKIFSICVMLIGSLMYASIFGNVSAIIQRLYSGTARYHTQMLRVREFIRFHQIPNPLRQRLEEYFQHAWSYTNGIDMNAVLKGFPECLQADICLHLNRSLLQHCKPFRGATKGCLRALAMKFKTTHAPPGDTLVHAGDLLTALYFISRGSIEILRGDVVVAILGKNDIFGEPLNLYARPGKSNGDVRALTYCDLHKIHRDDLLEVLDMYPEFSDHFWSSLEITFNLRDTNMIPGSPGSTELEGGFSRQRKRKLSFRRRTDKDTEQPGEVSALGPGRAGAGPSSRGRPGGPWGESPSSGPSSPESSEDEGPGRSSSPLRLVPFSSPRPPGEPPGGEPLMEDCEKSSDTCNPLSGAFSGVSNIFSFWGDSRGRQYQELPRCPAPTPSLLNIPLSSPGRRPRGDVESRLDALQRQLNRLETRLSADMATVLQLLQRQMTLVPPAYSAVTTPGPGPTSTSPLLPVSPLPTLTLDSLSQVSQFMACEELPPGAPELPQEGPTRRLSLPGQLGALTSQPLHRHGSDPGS

| Structure (SMILES) | Papp [1] [×10⁻⁶ cm/s] | Plasma Protein F u, plasma(%) [2] [%] | IC50 [3] [µM] | hepatocyte CLint [6] [µL/min/1e6 cells] | half-life [6] [h] | half-life [7] [h] | Plasma Protein F u, plasma(%) [8] [%] | half-life [9] [h] | Papp A→B [10] [×10⁻⁶ cm/s] | solubility [11, 24] [mg/mL] | microsomal CLint [12] [µL/min/mg] | half-life [12] [h] | Papp A→B [14] [×10⁻⁶ cm/s] | Papp B→A [14] [×10⁻⁶ cm/s] | microsomal CLint [15] [µL/min/mg] | half-life [15] [h] | Papp A→B [22] [×10⁻⁶ cm/s] | Papp B→A [22] [×10⁻⁶ cm/s] | recovery ([22]; read-out: Recovery (%) A→B) [%] | recovery ([22]; read-out: Recovery (%) B→A) [%] | further results |
| --- | --- | --- | --- | --- | --- | --- | --- | --- | --- | --- | --- | --- | --- | --- | --- | --- | --- | --- | --- | --- | --- |
| OCc1cc(Nc2nnc(N3CCCC3)s2)c2nonc2c1N1CCOCC1 [11a-pentyl] | 10.4 | 6.4 | 0.055 | 31.3 | > 0.738 | > 8 | 20 | > 8 | 11.8 | 5.03 | 45.5 | 0.508 | 1.44 | 60.5 | 302 | 0.0765 | – | – | – | – | hepatocyte CLint [4]: 28.5 µL/min/1e6 cells; half-life [4, 23]: > 0.81 h; IC50 [5]: > 10 µM; efflux ratio [10]: 1.28; Papp B→A ([10]; value after the slash, head names only a-b, read-out: Permeability-Caco-2 Papp, second value of the cell (taken as b-a)): 14.8 ×10⁻⁶ cm/s; solubility ([11]; pH 7.4, aqueous buffer, pH7.4, read-out: Solubility (pH, media)): 12.5 mM; IC50 [13]: 0.0147 µM; efflux ratio ([14]; third value of the cell, not given, read-out: Permeability-MDR1-MDCKII, value after the brackets (efflux ratio)): 42.1 |
| CNc1nnc(Nc2cc(CO)c(N3CCOCC3)c3nonc23)s1 [11a] | 1.62 | 43.3 | 0.045 | 4.1 | 5.67 | > 8 | 26.9 | > 8 | 10.6 | 150 | 12.8 | > 3 | 0.78 | 29.2 | 19.9 | 1.93 | – | – | – | – | hERG IC50 [5]: negative; hepatocyte CLint [16]: 3 µL/min/1e6 cells; half-life [16, 23]: > 8 h; concentration at 2 h [17]: 161 ng/mL; AEP activation, APP N585 and Tau N368 fragmentation, hippocampus immunoblotting [18]: gradually reduced; Cognitive function in the Y maze [19]: significantly improved; Brain Cmax ([20]; 11a at 10 mg/kg): 27.012 ng/mL; Brain AUC ([20]; oral administration): 128.980; Plasma AUC ([20]; oral administration): 516.028; AEP enzymatic activity in the brain ([21]; acute P.O. 7.5 and 15 mg/kg, dose-dependent): substantially inhibited; Active AEP band intensity, hippocampus immunoblotting ([21]; acute P.O.): reduced |
| CC(C)(C)NCC(O)COc1cccc2c1CC(O)C(O)C2 (centres unmarked) [Nadolol, reference compound] | – | – | – | – | – | – | – | – | – | – | – | – | – | – | – | – | 0.272 | 0.679 | 91.5 | 106 | – |
| CC(C)NCC(O)COc1cccc2ccccc12 (centres unmarked) [Propranolol, reference compound] | – | – | – | – | – | – | – | – | – | – | – | – | – | – | – | – | 29.3 | 30.5 | 93.5 | 102 | – |

Reference: PMC12664493, “Asparagine endopeptidase (AEP) inhibitor formulation via zein-based nanoparticle improves the therapeutic efficacy toward Alzheimer's disease” (Neurotherapeutics, 2025)
